Results taken from patent publication US20240300959A1, “BALASUBRAMIDE DERIVATIVE AND USE THEREOF IN PREPARATION OF MEDICINE FOR TREATING ACUTE LUNG INJURY” (Guangdong Pharmaceutical University, priority 2023, published 2024).

Columns and labels:
[1] = test system: bone marrow derived macrophages (BMDMs); test: CCK-8 cell viability of bone marrow derived macrophages; type: cell-based, C57BL/6J mice; conditions: BMDM cell viability
Description: (1) Collection of bone marrow derived macrophages (BMDMs): C57BL/6J mice were sacrificed by dislocation of cervical vertebra, completely soaked and sterilized with 75% ethanol and placed faceup on a mouse board to fix the four limbs, the skin of the hind limbs was cut, the limbs were cut at ankle joints and femoral joints, and muscles and knee joints were removed. Precooled serum-free DMEM was sucked with a 1 mL syringe to rinse the bone marrow until a leg bone turned white, a rinsing solution was filtered with a 200-mesh filter membrane and then collected into a 15 mL centrifuge tube, centrifugation was performed at 500×g for 5 min, a supernatant was discarded, and a cell precipitate was resuspended with 1 mL of a red blood cell lysis buffer. After stomatocytosis was performed for 1 min, 5 mL of DMEM was added to stop the stomatocytosis, centrifugation was performed at 500×g for 5 min, a supernatant was discarded, and cells at a lower layer were resuspended overnight with DMEM containing 10% of FBS. Monocytes were collected by centrifugation and then resuspended with a DMEM culture medium containing 20% of FBS, and M-CSF was added at a final concentration of 25 ng/mL. The cells were inoculated into a 96-well plate at a density of 6×10^5, cultured in a cell incubator with a CO2 concentration of 5% at 37° C. for 48 h, and then cultured by adding M-CSF with a final concentration of 25 ng/mL into each well for 48 h until the monocytes were subjected to adherent culture and differentiation to obtain macrophages.
The expression level of an inflammatory factor TNF-α in a cell supernatant was detected according to an operation instruction of a commercial ELISA kit, and the cell viability at different administration concentrations of (+)3C-20 was determined according to an operation instruction of a CCK-8 kit.

[2] = test system: mice with acute lung injury caused by intratracheal instillation of lipopolysaccharide; test: Intratracheal LPS acute lung injury: wet/dry ratio, BALF TNF-α, total protein, myeloid cells; type: in vivo, ICR mice
Description: Grouping and administration of animals: 50 male ICR mice were randomly divided into 3 groups according to the body weight, including a control group, a model group and a 50 mg/kg (+)3C-20 group. Drug preparation, administration and a modeling method were the same as those in Example 7. After continuous preadministration for 3 days, intratracheal instillation of LPS was performed for modeling 2 h after the last administration. 6 h after the modeling, a part of the mice were directly sacrificed, the whole lungs were taken out and weighed to obtain wet weight, then the whole lungs were dried at 60° C. for 24 h and weighed to obtain dry weight, and the wet-dry weight ratio of each group was calculated by statistics. 6 h after the modeling, the remaining mice were subjected to bronchoalveolar lavage, and then bronchoalveolar lavage fluid (BALF) was collected. A lavage process was as follows: After being sacrificed, the mice were placed faceup to fix the four limbs, the skin of the neck was cut, the trachea was separated and cut at an appropriate position to obtain a small incision, a 16G needle with a flat tip was inserted into the trachea at a depth of 1 cm, the trachea and the needle stem were tied tightly to obtain an indwelling needle, 400 μL of precooled PBS was sucked with a 1 mL syringe and slowly pushed into the trachea, suction was performed for two times, the operations above were repeated, and recovered BALF was combined with a recovery efficiency of 70%-80%. The collected BALF was subjected to centrifugation at 500×g at 4° C. for 5 min, a supernatant was collected, the content level of total protein in the supernatant was determined by a BCA kit, and the expression level of an inflammatory factor TNF-α in the BALF supernatant was detected according to an operation instruction of a commercial ELISA kit.
A bottom precipitate obtained after the centrifugation of the BALF was resuspended with 100 μL of an ACK buffer (Thermo A10492 stomatocytosis agent), evenly blown and subjected to standing for 1 min. Stomatocytosis was stopped with 1 mL of an FACS buffer (PBS containing 1% of FBS), centrifugation was performed at 500×g at 4° C. for 5 min, a supernatant was discarded, 100 μL of an FACS buffer was added, 1 μL of a CD16/CD32 Fc Block antibody (1:100) was added, and incubation was performed in the dark at 4° C. for 30 min. 1 mL of an FACS buffer was added, centrifugation was performed at 500×g at 4° C. for 5 min, a supernatant was discarded, and 100 μL of an FACS buffer was added for resuspension. Various fluorescent dyes (including mCD45-PerCP-Cy5.5, mCD11b-FITC, mF4/80-APC, mLy6C-PE, mLy6G-BV421 and FVS-780) were added at a ratio of 1:300, a single dye tube of each of the fluorescent dyes was prepared according to the above ratio, and incubation was performed in the dark at 4° C. for 30 min. 1 mL of an FACS buffer was added for resuspension, centrifugation was performed at 500×g at 4° C. for 5 min, and a supernatant was discarded. Washing was repeated for one time, centrifugation was performed to remove a supernatant, 500 μL of 1% paraformaldehyde was added for fixing in the dark for 30 min, centrifugation was performed at 500×g at 4° C. for 5 min, and a supernatant was discarded. 200 μL of an FACS buffer was added for resuspension, and a resulting suspension was stored in the dark at 4° C. Before loading on a machine, the stained cell suspension was diluted with an FACS buffer, transferred to a flow tube and detected according to an operation procedure of a CytoFlex flow cytometer. A flow gate strategy was as follows: Gain was first regulated according to each single dye tube, and compensation was properly regulated, where CD45^+, CD11b^+ and F4/80^+ were macrophages, CD45^+, CD11b^+ and Ly6G^+ were neutrophils, and CD45^+, CD11b^+ and Ly6C^+ were monocytes.

[3] = 50 mg/kg i.p. 3 days, 6 h after intratracheal LPS, model group = 100

## O=C(CCc1ccc(C(F)(F)F)cc1)O[C@@H]1C(=O)NCCc2c([nH]c3ccccc23)[C@H]1c1ccc(C(F)(F)F)cc1 [(+)-3C-20]
[1]; 0.1 μM
  Percentage of CCK-8 in a model group (%): 100.35 ± 3.74%
[1]; 1 μM
  Percentage of CCK-8 in a model group (%): 96.71 ± 2.26%
[1]; 2.5 μM
  Percentage of CCK-8 in a model group (%): 97.49 ± 1.35%
[1]; 5 μM
  Percentage of CCK-8 in a model group (%): 89.87 ± 3.68%
[2]; [3]
  Level of TNF-α in BALF: 43.31
  Level of total protein in BALF: 73.44
[2]; 50 mg/kg i.p. 3 days, lung, 6 h after intratracheal LPS
  Wet/Dry ratio: 4.28
[2]; 50 mg/kg i.p., BALF flow cytometry CD45+ CD11b+ F4/80+
  Macrophage (%): 0.82%
[2]; 50 mg/kg i.p., BALF flow cytometry CD45+ CD11b+ Ly6C+
  Monocyte (%): 4.13%
[2]; 50 mg/kg i.p., BALF flow cytometry CD45+ CD11b+ Ly6G+
  Neutrophil (%): 10.47%
